{"source": "patent US7288556B2", "about": "“Antiproliferative 1,2,3-thiadiazole compounds” (QLT Inc., priority 2000, dated 2007)", "key": {"HUVEC [1]": {"system": "HUVEC", "experiment": "HUVEC endothelial proliferation in response to test compounds (MTS)", "format": "cell-based", "description": "(§1) Endothelial cell cultures: Cell lines used include HUVEC, EJG and MS1 and are routinely passaged 1 to 2 times weekly. Endothelial growth media (EGM) consists of Endothelial Base Media plus all supplements (Clonetics). For testing of compounds, endothelial cells were plated on 1% gelatin-coated plates. Prior to plating, gelatin solution was added to the plates for at least 10 minutes before plating, but excess solution removed immediately before adding cells. Sterile gelatin solution consists of 1% gelatin in dH2O that has been autoclaved. Endothelial cells form a characteristic cobblestone monolayer upon confluency. Typically, a T-75 plate contains 1 million microvascular cells upon confluency.\na. HUVEC Endothelial Proliferation in Response to Test compounds: HUVEC were cultured in 96-well plates and treated with a dilution series of test compounds for potential angiogenesis-related effects.\nDay 0—Endothelium are plated at 5000 cells/well and at 10,000 cells/well.\nDay1—Treatments are added in EGM culture medium in an appropriate dilution series (n=6 or 12). Controls included EGM alone, serum free medium (SFM), and EGM plus 0.5% DMSO.\nDay 1-2, MTS/PMS solutions were added and plates read at 4 and 24 h after treatment."}, "HUVEC [2]": {"system": "HUVEC", "experiment": "3H-Thymidine incorporation proliferation assay", "format": "cell-based", "conditions": "10 μm", "description": "as §1\nb. Thymidine incorporation proliferation assay: Cells were plated out and grown overnight. The next day the test compound or controls were added to the plates, along with diluted ^3H-thymidine added to a final concentration of 0.1 μCi/well, and the plates were incubated. After 24 h, the plates were spun down 1000 g for 10 min (for non-adherent cells) before removing the PBS. A volume of 120 μl of the scintillant fluid was added to each of the wells, and the plate was read."}, "IEC-18 Epithelium": {"system": "IEC-18 Epithelium", "experiment": "Matrigel invasion assay, IEC-18", "format": "cell-based", "conditions": "10 μm, 24 h, control 16.8", "description": "(§2) c. Invasion Assays: Invasion of cells into surrounding tissue is a hallmark property of tissue remodeling. Tissue remodeling occurs during most pathological progression, including tumor progression, angiogenesis and during normal processes such as wound healing. The following invasion assays were performed using Biocoat® Cell Environments™ Matrigel Invasion Chamber 24-Well Plate Size (Becton Dickinson). The invasion chambers can be used to assess the ability of a cell to traverse an extracellular matrix under a variety of conditions. The chambers consist of a 24 well plate and […] that can be suspended in each well and act as an upper chamber. Cells place in the upper chamber insert must invade through a matrix in order to enter the lower chamber.\n(§3) Cells were pre-labeled with ^3H-thymidine overnight. Typically, 5×10^5 cells were cultured overnight in 5 mls of serum-containing media spiked with 200 μl of thymidine stock solution. Cells were scraped off of the flask substratum and gently pipetted up and down to achieve single cell suspension in the medium. […]\n(§4) After an incubation period of 24 h, media was carefully removed from the upper chamber insert and saved for scintillation counting. […] The relative amount of cell invasion was calculated by adding counts from the filters and lower chambers and dividing this sum by the total counts added initially to the upper chambers. […]"}, "IEC-18-13 Epithelium": {"system": "IEC-18-13 Epithelium", "experiment": "Matrigel invasion assay, IEC-18-13", "format": "cell-based", "conditions": "10 μm, 24 h, control 34.9", "description": "as §2, §3, §4"}, "[3]": {"system": "chick chorioallantoic membrane", "experiment": "Chick chorioallantoic membrane (CAM) developmental angiogenesis assay", "format": "in vivo, chicken", "description": "e. Chick chorioallantoic membrane assay (CAM assay): was performed on fertilized chicken eggs and used as a test for angiogenesis inhibition.\nApproximately 4 dozen fertilized eggs were sprayed with 70% ETOH and placed in a 180 egg incubator (GQF Sportsman incubator). The eggs were incubated “rounded-side down” and were fully rotated along the vertical axis every 30 minutes at 37° C. under 90% relative humidity.\nAfter 4 days, the eggs were placed upside down (round side up) for 5-10 minutes, before a round hole approximately 3 centimeters in diameter was created above the pointed end or “air hole” of the egg using sterile blunt-ended forceps (“deshelling”). The inner membrane was also removed, and the embryo was visible through this opening. A small portion of the outer membrane was then carefully removed using fine-tipped forceps in order to expose the CAM. Sterile Parafilm was placed over the de-shelled opening to create an airtight seal. The eggs were returned to the incubator (with no rotation) for 2 days.\nViable eggs were then treated with control and inhibitor compounds. Gelfoam™ gelatin sterile sponge (Upjohn) or 1-2 mm discs of methylcellulose saturated with physiological saline, buffer or an appropriate dilution of the compounds under investigation. The Gelfoam™ fragments of methylcellulose discs were added directly to the surface of the developing CAM. Care was taken not to add the treatment directly over a large vessel. The shells were marked in 3 places to aid in stereotactic localization of the treatment sponge or disc. An average of 6 eggs were included for each experimental condition. The treated eggs were returned to the incubator for 2 days.\nThe eggs were then assessed for blood vessel growth inhibition. Photomicrographs for records and visual examination were made using a Nikon dissecting microscope with an attached Nikon 35-mm camera body."}, "Lewis Lung cell line": {"system": "Lewis Lung cell line", "conditions": "cells inoculated subcutaneously in rear flank of mice, compound i.p. daily", "description": "Anti-tumour efficacy and dose response in allograft and xenograft models. Cell lines were selected from an in vitro assay based on ILK expression, and growth curves characterized in vivo. Preliminary tests were performed with the Lewis Lung cell line in a murine allograft tumor model. In parallel, human xenograft tumor lines were characterized.\nCells were inoculated subcutaneously in the rear flank of mice, and the test compound was administered i.p. daily. Tumors were measured and the size calculated, with the objective being a decrease in tumor growth compared to the controls."}, "[4]": {"conditions": "HUVEC in log phase growth, 5 μm"}, "[5]": {"conditions": "HUVEC in log phase growth, 10 μm"}, "[6]": {"conditions": "HUVEC in log phase growth, 20 μm"}}, "note": "Marks after values point to notes of the source that are not given here.", "data": [{"smiles": "NC(=O)c1nnsc1Nc1ccccc1", "note": "[KP-15807, 5-Phenylamino-[1,2,3]thiadiazole-4-carboxylicacid amide]", "values": [{"measurement": "MTS Relative Absorbance 4 h", "setting": "HUVEC [1]; [4]", "value": "1.26 +/− 0.17"}, {"measurement": "MTS Relative Absorbance 24 h", "setting": "HUVEC [1]; [4]", "value": "1.22 +/− 0.09"}, {"measurement": "MTS Relative Absorbance 4 h", "setting": "HUVEC [1]; [5]", "value": "1.31 +/− 0.09"}, {"measurement": "MTS Relative Absorbance 24 h", "setting": "HUVEC [1]; [5]", "value": "1.24 +/− 0.04"}, {"measurement": "MTS Relative Absorbance 4 h", "setting": "HUVEC [1]; [6]", "value": "1.25 +/− 0.03"}, {"measurement": "MTS Relative Absorbance 24 h", "setting": "HUVEC [1]; [6]", "value": "1.21 +/− 0.05"}, {"measurement": "MTS Relative Absorbance 4 h", "setting": "HUVEC [1]; HUVEC post-confluent, 5 μm", "value": "2.06 +/− 0.20"}, {"measurement": "MTS Relative Absorbance 24 h", "setting": "HUVEC [1]; HUVEC post-confluent, 5 μm", "value": "1.55 +/− 0.17"}, {"measurement": "MTS Relative Absorbance 4 h", "setting": "HUVEC [1]; HUVEC post-confluent, 10 μm", "value": "2.30 +/− 0.05"}, {"measurement": "MTS Relative Absorbance 24 h", "setting": "HUVEC [1]; HUVEC post-confluent, 10 μm", "value": "1.62 +/− 0.12"}, {"measurement": "MTS Relative Absorbance 4 h", "setting": "HUVEC [1]; HUVEC post-confluent, 20 μm", "value": "2.52 +/− 0.05"}, {"measurement": "MTS Relative Absorbance 24 h", "setting": "HUVEC [1]; HUVEC post-confluent, 20 μm", "value": "1.71 +/− 0.02"}, {"measurement": "3H-Thymidine incorporation at 24 h", "setting": "HUVEC [2]; HUVEC in log phase growth", "value": "746 +/− 200"}, {"measurement": "3H-Thymidine incorporation at 48 h", "setting": "HUVEC [2]; HUVEC in log phase growth", "value": "1251 +/− 117"}, {"measurement": "3H-Thymidine incorporation at 24 h", "setting": "HUVEC [2]; HUVEC post-confluent", "value": "571 +/− 86"}, {"measurement": "3H-Thymidine incorporation at 48 h", "setting": "HUVEC [2]; HUVEC post-confluent", "value": "452 +/− 71*"}, {"measurement": "% Cell Invasion", "setting": "IEC-18 Epithelium", "value": 9, "unit": "%"}, {"measurement": "% Cell Invasion", "setting": "IEC-18-13 Epithelium", "value": 8, "unit": "%"}, {"measurement": "% Inhibition", "setting": "[3]; 5 μm", "value": 60, "unit": "%"}, {"measurement": "% Inhibition", "setting": "[3]; 10 μm", "value": 75, "unit": "%"}, {"measurement": "% Inhibition", "setting": "[3]; 20 μm", "value": 85, "unit": "%"}, {"measurement": "tumor growth compared to control", "setting": "Lewis Lung cell line", "value": "succeeded in reducing tumor growth compared to control"}, {"measurement": "melting point", "value": "195 to 197", "unit": "°C"}]}]}
